Laboratory results as given in the NIST ThermoML archive (doi:10.1021/acs.jced.5b00562).
± gives the expanded uncertainty stated by the source.

Settings: for specific volume: Gas, isochoric method; for mass density: Liquid, Vibrating tube method

F/C=C(\F)C(F)(F)F [(Z)-1,2,3,3,3-pentafluoro-1-propene]
Settings | mass density [kg/m3] | specific volume [m3/kg]
323.15 K, 169.7 kPa | – | 0.116 ± 0.005
323.15 K, 245.6 kPa | – | 0.079 ± 0.005
323.15 K, 1296 kPa | 1172.9 ± 1.4 | –
323.15 K, 7500 kPa | 1226.8 ± 1.5 | –
323.15 K, 10001 kPa | 1243.3 ± 1.6 | –
323.15 K, 12499 kPa | 1257.6 ± 1.6 | –
323.15 K, 15000 kPa | 1270.8 ± 1.7 | –
323.15 K, 17499 kPa | 1282.9 ± 1.7 | –
323.15 K, 19999 kPa | 1294 ± 1.8 | –
323.15 K, 22500 kPa | 1304.4 ± 1.8 | –
323.15 K, 25001 kPa | 1314.1 ± 1.9 | –
323.15 K, 27500 kPa | 1323.2 ± 1.9 | –
323.15 K, 30001 kPa | 1331.8 ± 2 | –
323.15 K, 32501 kPa | 1340 ± 2 | –
323.15 K, 35001 kPa | 1347.7 ± 2.1 | –
323.16 K, 466.1 kPa | – | 0.04 ± 0.005
323.16 K, 1499 kPa | 1175.1 ± 1.4 | –
323.16 K, 2000 kPa | 1180.3 ± 1.4 | –
323.16 K, 2502 kPa | 1185.5 ± 1.4 | –
323.16 K, 4998 kPa | 1207.9 ± 1.5 | –
328.07 K, 566.8 kPa | – | 0.033 ± 0.005
328.11 K, 360.1 kPa | – | 0.054 ± 0.005
328.14 K, 669.2 kPa | – | 0.027 ± 0.005
328.15 K, 172.6 kPa | – | 0.116 ± 0.005
328.15 K, 249.7 kPa | – | 0.079 ± 0.005
328.15 K, 475.1 kPa | – | 0.04 ± 0.005
333.1 K, 365.4 kPa | – | 0.054 ± 0.005
333.1 K, 578.2 kPa | – | 0.033 ± 0.005
333.13 K, 682.7 kPa | – | 0.027 ± 0.005
333.15 K, 174.9 kPa | – | 0.116 ± 0.005
333.15 K, 253.9 kPa | – | 0.079 ± 0.005
333.15 K, 483.9 kPa | – | 0.04 ± 0.005
333.15 K, 1502 kPa | 1124.9 ± 1.3 | –
333.15 K, 1999 kPa | 1132 ± 1.3 | –
333.15 K, 2500 kPa | 1138.6 ± 1.3 | –
333.15 K, 5000 kPa | 1166.8 ± 1.4 | –
333.15 K, 7500 kPa | 1189.4 ± 1.4 | –
333.15 K, 10000 kPa | 1208.6 ± 1.5 | –
333.15 K, 12500 kPa | 1225.4 ± 1.5 | –
333.15 K, 15000 kPa | 1240.4 ± 1.6 | –
333.15 K, 17500 kPa | 1255 ± 1.7 | –
333.15 K, 20000 kPa | 1266.6 ± 1.7 | –
333.15 K, 22500 kPa | 1278.1 ± 1.8 | –
333.15 K, 25003 kPa | 1288.8 ± 1.8 | –
333.15 K, 27500 kPa | 1298.8 ± 1.9 | –
333.15 K, 29999 kPa | 1308.2 ± 1.9 | –
333.15 K, 32500 kPa | 1317.8 ± 2 | –
333.15 K, 35000 kPa | 1326.3 ± 2 | –
338.08 K, 589.4 kPa | – | 0.033 ± 0.005
338.08 K, 696.3 kPa | – | 0.027 ± 0.005
338.14 K, 371.5 kPa | – | 0.054 ± 0.005
338.15 K, 177.9 kPa | – | 0.116 ± 0.005
338.15 K, 257.7 kPa | – | 0.079 ± 0.005
338.15 K, 492.8 kPa | – | 0.04 ± 0.005
343.08 K, 600.4 kPa | – | 0.033 ± 0.005
343.09 K, 377.8 kPa | – | 0.054 ± 0.005
343.13 K, 710 kPa | – | 0.027 ± 0.005
343.15 K, 181 kPa | – | 0.116 ± 0.005
343.15 K, 262.4 kPa | – | 0.079 ± 0.005
343.15 K, 501.5 kPa | – | 0.04 ± 0.005
343.15 K, 1800 kPa | 1070 ± 1.2 | –
343.15 K, 2000 kPa | 1074.1 ± 1.3 | –
343.15 K, 2500 kPa | 1083.8 ± 1.3 | –
343.15 K, 5001 kPa | 1121.1 ± 1.3 | –
343.15 K, 7500 kPa | 1149.2 ± 1.4 | –
343.15 K, 10001 kPa | 1172 ± 1.4 | –
343.15 K, 12500 kPa | 1191.5 ± 1.5 | –
343.15 K, 15000 kPa | 1208.5 ± 1.5 | –
343.15 K, 17500 kPa | 1223.8 ± 1.6 | –
343.15 K, 20000 kPa | 1237.6 ± 1.6 | –
343.15 K, 22500 kPa | 1250.3 ± 1.7 | –
343.15 K, 27500 kPa | 1273.2 ± 1.8 | –
343.15 K, 30000 kPa | 1283.5 ± 1.8 | –
343.15 K, 32500 kPa | 1293.3 ± 1.9 | –
343.15 K, 35000 kPa | 1302.5 ± 1.9 | –
343.16 K, 25000 kPa | 1262.3 ± 1.7 | –
348.06 K, 611.4 kPa | – | 0.033 ± 0.005
348.07 K, 383.7 kPa | – | 0.054 ± 0.005
348.14 K, 723.7 kPa | – | 0.027 ± 0.005
348.15 K, 183.8 kPa | – | 0.116 ± 0.005
348.15 K, 266.6 kPa | – | 0.079 ± 0.005
348.15 K, 510.2 kPa | – | 0.04 ± 0.005
353.05 K, 390.1 kPa | – | 0.054 ± 0.005
353.11 K, 622.8 kPa | – | 0.033 ± 0.005
353.13 K, 737.3 kPa | – | 0.027 ± 0.005
353.14 K, 20000 kPa | 1209 ± 1.6 | –
353.15 K, 186.6 kPa | – | 0.116 ± 0.005
353.15 K, 270.7 kPa | – | 0.079 ± 0.005
353.15 K, 518.9 kPa | – | 0.04 ± 0.005
353.15 K, 5000 kPa | 1070.7 ± 1.2 | –
353.15 K, 7500 kPa | 1106.5 ± 1.3 | –
353.15 K, 10000 kPa | 1134 ± 1.4 | –
353.15 K, 12500 kPa | 1156.8 ± 1.4 | –
353.15 K, 15000 kPa | 1176.3 ± 1.5 | –
353.15 K, 17500 kPa | 1193.5 ± 1.5 | –
353.15 K, 22500 kPa | 1223 ± 1.6 | –
353.15 K, 25000 kPa | 1235.9 ± 1.7 | –
353.15 K, 27500 kPa | 1247.9 ± 1.7 | –
353.15 K, 30000 kPa | 1259 ± 1.8 | –
353.15 K, 32502 kPa | 1269.4 ± 1.8 | –
353.16 K, 2500 kPa | 1016.9 ± 1.2 | –
353.16 K, 35001 kPa | 1279.2 ± 1.9 | –
358.11 K, 397.3 kPa | – | 0.054 ± 0.005
358.15 K, 189.5 kPa | – | 0.116 ± 0.005
358.15 K, 274.5 kPa | – | 0.079 ± 0.005
358.15 K, 527.6 kPa | – | 0.04 ± 0.005
358.15 K, 750.7 kPa | – | 0.027 ± 0.005
358.17 K, 633.7 kPa | – | 0.033 ± 0.005
363.13 K, 764 kPa | – | 0.027 ± 0.005
363.14 K, 278.7 kPa | – | 0.079 ± 0.005
363.14 K, 644.4 kPa | – | 0.033 ± 0.005
363.16 K, 192.3 kPa | – | 0.116 ± 0.005
363.16 K, 536.1 kPa | – | 0.04 ± 0.005
363.29 K, 404 kPa | – | 0.054 ± 0.005
368.03 K, 409.8 kPa | – | 0.054 ± 0.005
368.1 K, 777.4 kPa | – | 0.027 ± 0.005
368.15 K, 194.3 kPa | – | 0.116 ± 0.005
368.15 K, 544.7 kPa | – | 0.04 ± 0.005
368.16 K, 282.9 kPa | – | 0.079 ± 0.005
368.16 K, 655.3 kPa | – | 0.033 ± 0.005
